Experimental data published in US9695205B2, “Amide compounds for treatment of complement mediated disorders” (Achillion Pharmaceuticals, Inc., priority 2014, dated 2017).

Molecular target: Human factor D (Homo sapiens (Human), UniProt P00746)
Experiment: Human Factor D Assay
Format: biochemical
Conditions: Human factor D 80 nM, substrate Z-L-Lys-SBzl and DTNB 100 μM each, pH 7.5
Method: Example 14. Human Factor D Assay
Human factor D (purified from human serum, Complement Technology, Inc.) at 80 nM final concentration is incubated with test compound at various concentrations for 5 minutes at room temperature in 50 mM Tris, 1M NaCl, pH 7.5. A synthetic substrate Z-L-Lys-SBzl and DTNB (Ellman's reagent) are added to final concentrations of 100 μM each. The increase in color is recorded at OD405 nm in a microplate in kinetic mode over 30 minutes with 30 second time points in a spectrofluorimeter. IC50 values are calculated by non-linear regression from the percentage of inhibition of complement factor D activity as a function of test compound concentration.

Chain of Human factor D (P00746 26-253): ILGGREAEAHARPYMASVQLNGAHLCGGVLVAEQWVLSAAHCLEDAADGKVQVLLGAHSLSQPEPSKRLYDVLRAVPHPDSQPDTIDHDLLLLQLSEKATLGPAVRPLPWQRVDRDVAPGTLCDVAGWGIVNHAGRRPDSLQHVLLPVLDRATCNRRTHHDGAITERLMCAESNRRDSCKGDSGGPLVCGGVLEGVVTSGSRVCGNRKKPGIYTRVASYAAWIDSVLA

Row | Compound | IC50 [nM]
1 | CC(=O)c1cn(CC(=O)N2C[C@H](F)C[C@H]2C(=O)NCc2cccc(Cl)c2F)c2cc(NC(=O)OC(C)(C)C)ccc12 [Compound 37, tert-butyl 3-acetyl-1-(2-((2S,4R)-2-(3-chloro-2-fluorobenzylcarbamoyl)-4-fluoropyrrolidin-1-yl)-2-oxoethyl)-1H-indol-6-ylcarbamate] | < 1000
2 | CC(=O)c1cn(CC(=O)N2C[C@H](F)C[C@H]2C(=O)NCc2cccc(Cl)c2F)c2ccc(C(=O)N3CC=C(B(O)O)CC3)cc12 [Compound 38, 1-(3-acetyl-1-(2-((2S,4R)-2-(3-chloro-2-fluorobenzylcarbamoyl)-4-fluoropyrrolidin-1-yl)-2-oxoethyl)-1H-indole-5-carbonyl)-1,2,3,6-tetrahydropyridin-4-ylboronic acid] | < 1000
3 | CC(=O)c1cn(CC(=O)N2C[C@H](F)C[C@H]2C(=O)NCc2cccc(Cl)c2F)c2ccc(C(=O)N3CC4CCC3C4)cc12 (stereo partly drawn) [Compound 39, (2S,4R)-1-(2-(3-acetyl-5-(2-azabicyclo[2.2.1]heptane-2-carbonyl)-1H-indol-1-yl)acetyl)-N-(3-chloro-2-fluorobenzyl)-4-fluoropyrrolidine-2-carboxamide] | < 1000
4 | CC(=O)c1cn(CC(=O)N2C[C@H](F)C[C@H]2C(=O)NCc2cccc(Cl)c2F)c2ccc(C(=O)N3CCCC(F)(F)C3)cc12 [Compound 40, (2S,4R)-1-(2-(3-acetyl-5-(3,3-difluoropiperidine-1-carbonyl)-1H-indol-1-yl)acetyl)-N-(3-chloro-2-fluorobenzyl)-4-fluoropyrrolidine-2-carboxamide] | < 1000
5 | CC(=O)c1cn(CC(=O)N2C[C@H](F)C[C@H]2C(=O)NCc2cccc(Cl)c2F)c2ccc(C(=O)NC3CC3)cc12 [Compound 41, 3-acetyl-1-(2-((2S,4R)-2-(3-chloro-2-fluorobenzylcarbamoyl)-4-fluoropyrrolidin-1-yl)-2-oxoethyl)-N-cyclopropyl-1H-indole-5-carboxamide] | < 1000
6 | CC(=O)c1cn(CC(=O)N2C[C@H](F)C[C@H]2C(=O)NCc2cccc(Cl)c2F)c2cc(C(=O)N3CCC(CN)C3)ccc12 (stereo partly drawn) [Compound 42, (2S,4R)-1-(2-(3-acetyl-6-(3-(aminomethyl)pyrrolidine-1-carbonyl)-1H-indol-1-yl)acetyl)-N-(3-chloro-2-fluorobenzyl)-4-fluoropyrrolidine-2-carboxamide] | < 1000
7 | CC(=O)c1cn(CC(=O)N2C[C@H](F)C[C@H]2C(=O)NCc2cccc(Cl)c2F)c2cc(C(=O)NS(C)(=O)=O)ccc12 [Compound 43, 3-acetyl-1-(2-((2S,4R)-2-(3-chloro-2-fluorobenzylcarbamoyl)-4-fluoropyrrolidin-1-yl)-2-oxoethyl)-N-(methylsulfonyl)-1H-indole-6-carboxamide] | < 1000
8 | CC(=O)c1cn(CC(=O)N2C[C@H](F)C[C@H]2C(=O)NCc2cccc(Cl)c2F)c2cc(C(=O)N[C@H]3CCN(C(=O)OC(C)(C)C)C3)ccc12 [Compound 44, (S)-tert-butyl 3-(3-acetyl-1-(2-((2S,4R)-2-(3-chloro-2-fluorobenzylcarbamoyl)-4-fluoropyrrolidin-1-yl)-2-oxoethyl)-1H-indole-6-carboxamido) pyrrolidine-1-carboxylate] | < 1000
9 | CC(=O)c1cn(CC(=O)N2C[C@H](F)C[C@H]2C(=O)NCc2cccc(Cl)c2F)c2cc(C(=O)N[C@H]3CCNC3)ccc12 [Compound 45, 3-acetyl-1-(2-((2S,4R)-2-(3-chloro-2-fluorobenzylcarbamoyl)-4-fluoropyrrolidin-1-yl)-2-oxoethyl)-N-((S)-pyrrolidin-3-yl)-1H-indole-6-carboxamide] | < 1000
10 | CC(=O)c1cn(CC(=O)N2C[C@H](F)C[C@H]2C(=O)NCc2cccc(Cl)c2F)c2cc(C(=O)N[C@H]3CCN(C(C)=O)C3)ccc12 [Compound 46, 3-acetyl-N-((S)-1-acetylpyrrolidin-3-yl)-1-(2-((2S,4R)-2-(3-chloro-2-fluorobenzylcarbamoyl)-4-fluoropyrrolidin-1-yl)-2-oxoethyl)-1H-indole-6-carboxamide] | < 1000
11 | CC(=O)c1cn(CC(=O)N2C[C@H](F)C[C@H]2C(=O)NCc2cccc(Cl)c2F)c2cc(C(=O)NS(=O)(=O)C3CC3)ccc12 [Compound 48, 3-acetyl-1-(2-((2S,4R)-2-(3-chloro-2-fluorobenzylcarbamoyl)-4-fluoropyrrolidin-1-yl)-2-oxoethyl)-N-(cyclopropylsulfonyl)-1H-indole-6-carboxamide] | < 1000
12 | CC(=O)c1cn(CC(=O)N2C[C@H](F)C[C@H]2C(=O)NCc2cccc(Cl)c2F)c2cc(C(=O)NCC3CCNC3)ccc12 (stereo partly drawn) [Compound 49, 3-acetyl-1-(2-((2S,4R)-2-(3-chloro-2-fluorobenzylcarbamoyl)-4-fluoropyrrolidin-1-yl)-2-oxoethyl)-N-(pyrrolidin-3-ylmethyl)-1H-indole-6-carboxamide] | < 1000
13 | CC(=O)c1cn(CC(=O)N2C[C@H](F)C[C@H]2C(=O)NCc2cccc(Cl)c2F)c2cc(C(=O)NCC3CCN(C(=O)OC(C)(C)C)C3)ccc12 (stereo partly shown) [Compound 50] | < 1000
14 | COC(=O)C1CCN(C(=O)c2ccc3c(C(C)=O)cn(CC(=O)N4C[C@H](F)C[C@H]4C(=O)NCc4cccc(Cl)c4F)c3c2)C1 (stereo partly drawn) [Compound 51, methyl 1-(3-acetyl-1-(2-((2S,4R)-2-(3-chloro-2-fluorobenzylcarbamoyl)-4-fluoropyrrolidin-1-yl)-2-oxoethyl)-1H-indole-6-carbonyl)pyrrolidine-3-carboxylate] | < 1000
15 | CC(=O)c1cn(CC(=O)N2C[C@H](F)C[C@H]2C(=O)NCc2cccc(Cl)c2F)c2cc(C(=O)N3CCC(C(=O)O)C3)ccc12 (stereo partly drawn) [Compound 52, 1-(3-acetyl-1-(2-((2S,4R)-2(3-chloro-2-fluorobenzylcarbamoyl)-4-fluoropyrrolidin-1-yl)-2-oxoethyl)-1H-indole-6-carbonyl) pyrrolidine-3-carboxylic acid] | < 1000
16 | CC(=O)c1cn(CC(=O)N2C[C@H](F)C[C@H]2C(=O)NCc2cccc(Cl)c2F)c2cc(C(=O)NS(=O)(=O)c3ccccc3)ccc12 [Compound 53] | < 1000
